For series [1] the following is noted: Crystal; for mass density: 101.33 kPa, X-ray diffraction.
Series [2] can be described thus: molar enthalpy of vaporization or sublimation. To be noted: 298.15 K; Crystal; Static calorimetry.
A short description of series [3]: molar heat capacity at constant pressure. Particulars: 101.33 kPa, Crystal, Small sample (50 mg) DSC.
The nature of series [4]: Molar enthalpy of transition or fusion. Particulars: Crystal; DSC.

± gives the expanded uncertainty stated by the source.

From the NIST ThermoML archive (doi:10.1016/j.jct.2015.11.010) come the findings set out here.

Regarding `O.Sc1ncc[nH]1.Sc1ncc[nH]1` [2-mercaptoimidazole hemihydrate], the mass density in series [1] (150 K) turned out to be 1489.4 ± 7.3 kg/m3.

Regarding `Sc1ncc[nH]1` [2-mercaptoimidazole], the molar enthalpy in series [2] is 27.3 ± 0.335 kcal/mol. The “molar heat capacity at constant pressure” value is recorded as 112 ± 7.7 J/K/mol in series [3] (298.15 K); 112.4 ± 7.9 J/K/mol in series [3] (303.15 K); 112.9 ± 7.9 J/K/mol in series [3] (308.15 K); 112.6 ± 8.9 J/K/mol in series [3] (313.15 K); 113.4 ± 8.6 J/K/mol in series [3] (318.15 K); 114.3 ± 8.6 J/K/mol in series [3] (323.15 K). For the same compound, the “molar heat capacity at constant pressure” value in series [3] (328.15 K) was found to be 115.3 ± 8.6 J/K/mol; in series [3] (333.15 K), 116.5 ± 8.6 J/K/mol. In addition, in series [4], the “Molar enthalpy of transition or fusion” value was 4.18 ± 0.115 kcal/mol. Also, the mass density in series [1] (296 K) stood at 1424.1 ± 7 kg/m3. Besides, the Triple point temperature in series [1] (DSC) is listed as 503.5 ± 0.8 K.

By mass density is commonly meant the mass of a sample divided by its volume.
